Test system: reverse cholesterol transport (RCT)
Experiment: Global RCT parameter in rats: Ra cholesterol combined with recovery of administered labeled cholesterol in fecal neutral sterols or bile acids
Assay type: in vivo
Settings: for "global parameter" of RCT into neutral sterols (product of Ra cholesterol and excretion of plasma cholesterol): rats fed the agent for 7 days
Procedure: A refinement of the approach outlined in Example 1, involves calculating the Ra of plasma cholesterol and combining that measurement with the fractional excretion of administered cholesterol as described in Example 4. The recovery of plasma cholesterol in stool is defined as the proportion of administered labeled cholesterol that was excreted in fecal neutral sterols. It is expressed as % label recovered from day 1-4 following infusion. It is calculated from: % ^13C enrichment in fecal neutral sterols, the mg/day excretion of neutral sterols and divided by total mg 1 ^13C cholesterol administered. [formula] The same calculation is made for the recovery of plasma cholesterol into bile acids excreted in stool. Rats were treated with common and investigational cholesterol lowering agents, cholesterolamine, ezetimibe, LXR agonist (TO-901317). The Ra of cholesterol is calculated as described, the recovery of administered cholesterol in fecal sterol or bile acids are calculated as described.

Structure (SMILES) | excretion of plasma cholesterol into neutral sterols and the global parameter of RCT (rats) | "global parameter" of RCT into neutral sterols (product of Ra cholesterol and excretion of plasma cholesterol) | plasma flux to neutral sterols (effect on RCT) (rats, FIG. 12)
O=S(=O)(c1ccccc1)N(CC(F)(F)F)c1ccc(C(O)(C(F)(F)F)C(F)(F)F)cc1 [TO-901317] | observed increase in RCT | significant increase observed | –
O=C1[C@H](CC[C@H](O)c2ccc(F)cc2)[C@@H](c2ccc(O)cc2)N1c1ccc(F)cc1 [ezetimibe] | – | significant increase observed | increase in plasma flux to neutral sterols
